Data published in US20240368122A1, “JAK2 INHIBITORS AND METHODS OF USE THEREOF” (RELAY THERAPEUTICS, INC., priority 2021, published 2024).
Where two headings read alike, the source gives them in different places.

How the values were obtained:
[1] = test system: TF1 JAK2 V617F STAT3 reporter; experiment: Cellular TF1 STAT3 assay (luciferase reporter), JAK2 V617F; assay type: cell-based; conditions: read-out: Cell PD-TF1 JAK2 V617F STAT3 (IC50)
Method in brief: (§1)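 TF1 V617F JAK2 reporter cells, 10k/well; 10-pt 1:3 dose response from 10 mM 1000× DMSO stock; 18-20 h, 37 °C, 5% CO2; ONE-glo, 10 min RT; luminescence. Triplicate plates, DMSO vehicle.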

[2] = test system: TF1 JAK2 V617F STAT5 reporter; experiment: Cellular TF1 STAT5 assay (luciferase reporter), JAK2 V617F; assay type: cell-based; conditions: read-out: Cell PD TF1 V617F STAT5 (IC50)
Method in brief: as §1

[3] = target: T1, JAK2 JH2 WT (V536-D812) [W659A, W777A, F794H solubilizing mutations] (Homo sapiens, UniProt O60674, F794H/W659A/W777A); experiment: Surface Plasmon Resonance (SPR) binding assay, JAK2 JH2 domain
T1 construct: **JAK2 JH2 WT (V536-D812) [W659A, W777A, F794H solubilizing mutations]; C-thrombin-avi-His6; thrombin cleavage site (C); His6 (C); purchased Biortus
T1 sequence (O60674 536-812 W659A/W777A/F794H): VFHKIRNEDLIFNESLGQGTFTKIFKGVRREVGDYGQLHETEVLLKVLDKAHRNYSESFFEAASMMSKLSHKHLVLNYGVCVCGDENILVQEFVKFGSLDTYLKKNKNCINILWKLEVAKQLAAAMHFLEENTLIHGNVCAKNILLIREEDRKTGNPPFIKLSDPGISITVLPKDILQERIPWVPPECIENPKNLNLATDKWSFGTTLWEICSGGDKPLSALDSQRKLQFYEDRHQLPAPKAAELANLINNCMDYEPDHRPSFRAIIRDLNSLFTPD
Method in brief: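 Kinetics came from 1:1 fits of single-cycle runs at 20 °C: four 3-fold dilutions from 5 uM for JH1 or 500 nM for JH2, 60 s association, and 300 s or 1200 s dissociation respectively. Protein was freshly captured per compound in the presence of 10 uM stabilizer compound, with running buffer of pH 7.5 HEPES/NaCl/glycerol/DTT plus 2% DMSO.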

[4] = Homo sapiens, TF-1, TF1 cells, JAK2 V617F

Structure (SMILES)	IC50 [1, 4] [nM]	IC50 [2, 4] [nM]	Kd [3] [nM]	IC50 ([1]; TF1 JAK2 V617F) [nM]	IC50 ([2]; TF1 JAK2 V617F) [nM]	Kd ([3]; SPR, JAK2 JH2 domain) [nM]
CNC(=O)c1nnc(NC(=O)C2CC2)cc1Nc1cccc(-c2cnn(C3CN(Cc4cccc(C(C)(C)COC)n4)C3)c2)c1OC [Compound 351]	500 to 5000	500 to 5000	0.01 to 10			
CNC(=O)c1nnc(NC(=O)C2CC2)cc1Nc1cccc(-c2cnn([C@H]3C[C@@H](N(C)c4ccccn4)C3)c2)c1OC [Compound 383]	5000 to 100000	5000 to 100000	0.01 to 10			
CNC(=O)c1nnc(NC(=O)C2CC2)cc1Nc1cccc(-c2cn(C3CN(Cc4cccc(Cl)n4)[C@@H]3C)nn2)c1OC (stereo in doubt) [Compound 239]	500 to 5000	500 to 5000	0.01 to 10			
CNC(=O)c1nnc(NC(=O)C2CC2)cc1Nc1cccc(-c2cnn(C3CN(Cc4cccn(C)c4=O)C3)c2)c1OC [Compound 267]	50 to 500	50 to 500	0.01 to 10			
CNC(=O)c1nnc(NC(=O)C2CC2)cc1Nc1cccc(-c2cnn(C3CN(Cc4cccc(C5(C)COC5)n4)C3)c2)c1OC [Compound 369]	50 to 500	50 to 500	0.01 to 10			
CNC(=O)c1nnc(NC(=O)C2CC2)cc1Nc1cccc(-c2cnn([C@H]3C[C@H]([C@@H](OC)c4ccccn4)C3)c2)c1OC (single isomer, unassigned) [Compound 346]	500 to 5000	500 to 5000	0.01 to 10			
CNC(=O)c1nnc(NC(=O)C2CC2)cc1Nc1cccc(-c2ccc(C3CN(Cc4cn(C)nc4C#N)C3)nc2)c1OC [Compound 293]	500 to 5000	5000 to 100000	50 to 500			
CNC(=O)c1nnc(NC(=O)C2CC2)cc1Nc1cccc(-c2ccc(C(=O)N(C)Cc3csc(C(C)C)n3)nc2)c1OC [Compound 199]	50 to 500	50 to 500	0.01 to 10			
CNC(=O)c1nnc(NC(=O)C2CC2)cc1Nc1cccc(-c2cn(C3CN(Cc4cccc(C#N)n4)C3)nc2C(C)(C)O)c1OC [Compound 339]	5000 to 100000	5000 to 100000	50 to 500			
CNC(=O)c1nnc(NC(=O)C2CC2)cc1Nc1ccc(C)c(-c2cnc(C(=O)N(C)Cc3cc(C(F)F)ccn3)c(F)c2)c1OC [Compound 289]	50 to 500	50 to 500	0.01 to 10			
CNC(=O)c1nnc(NC(=O)C2CC2)cc1Nc1ccc(Cl)c(-c2ccc(C(=O)N(C)Cc3cc(C#N)ccn3)cc2)c1OC [Compound 217]	500 to 5000	500 to 5000	0.01 to 10			
CNC(=O)c1nnc(NC(=O)C2CC2)cc1Nc1ccc(C)c(-c2ccc(C(=O)N(C)Cc3nccs3)nc2)c1OC [Compound 180]				500 to 5000	500 to 5000	0.01 to 10
CNC(=O)c1nnc(NC(=O)C2CC2)cc1Nc1cccc(-c2ccc(C(=O)N(C)Cc3nccc(C#N)n3)nc2)c1OC [Compound 261]	50 to 500	500 to 5000	0.01 to 10			
CNC(=O)c1nnc(NC(=O)C2CC2)cc1Nc1cccc(-c2ccc(C(=O)N(C)Cc3cccn(C)c3=O)nc2OC)c1OC [Compound 25]				500 to 5000	500 to 5000	0.01 to 10
CNC(=O)c1nnc(NC(=O)C2CC2)cc1Nc1cccc(-c2cnn(C3CN(Cc4cc(OC)ccn4)C3)c2)c1OC [Compound 88]				500 to 5000	500 to 5000	0.01 to 10
CNC(=O)c1nnc(NC(=O)C2CC2)cc1Nc1cccc(-c2cnc(C(=O)N(C)Cc3cn(C)nc3C(F)(F)F)nc2)c1OC [Compound 64]				500 to 5000	50 to 500	0.01 to 10
CNC(=O)c1nnc(NC(=O)C2CC2)cc1Nc1cccc(-c2ccc(C(=O)N(C)Cc3ccn(C)n3)c(C(F)(F)F)c2)c1OC [Compound 171]				500 to 5000	500 to 5000	0.01 to 10
CNC(=O)c1nnc(NC(=O)C2CC2)cc1Nc1cccc(-c2cnc(C(=O)N(C)Cc3ccon3)c(F)c2)c1OC [Compound 98]				500 to 5000	5000 to 100000	0.01 to 10
CNC(=O)c1nnc(NC(=O)C2CC2)cc1Nc1cccc(-c2ccc(C(=O)N(C)Cc3ccccc3C(F)(F)F)nc2)c1OC [Compound 52]				500 to 5000	500 to 5000	0.01 to 10
CNC(=O)c1nnc(NC(=O)C2CC2)cc1Nc1cccc(-c2cnn(C3CN(Cc4cccc(C5(C#N)CCC5)n4)C3)c2)c1OC [Compound 290]	50 to 500	50 to 500	0.01 to 10			
CNC(=O)c1cnc(NC(=O)C2CC2)cc1Nc1cccc(-c2ccc(C(=O)N(C)Cc3cc(C#N)ccn3)nc2)c1OC [Compound 176]				500 to 5000	50 to 500	0.01 to 10
CNC(=O)c1nnc(NC(=O)C2CC2)cc1Nc1cccc(-c2ccc(C(=O)N(C)Cc3cc(C#N)ccn3)nc2C2CC2)c1OC [Compound 137]				5000 to 100000	5000 to 100000	10 to 50
CNC(=O)c1nnc(NC(=O)C2CC2)cc1Nc1cccc(-c2cnn([C@@H]3CCN(Cc4cccc(C#N)n4)C3)c2)c1OC (single isomer, unassigned) [Compound 318]	500 to 5000	500 to 5000	0.01 to 10			

The remaining lines, values ahead:

IC50 [1, 4] [nM]	IC50 [2, 4] [nM]	Kd [3] [nM]	IC50 ([1]; TF1 JAK2 V617F) [nM]	IC50 ([2]; TF1 JAK2 V617F) [nM]	Kd ([3]; SPR, JAK2 JH2 domain) [nM]	Structure (SMILES)
50 to 500	50 to 500	0.01 to 10				CNC(=O)c1nnc(NC(=O)C2CC2)cc1Nc1cccc(-c2ccc(C(=O)N(C)Cc3c(C)nn(C)c3Cl)nc2)c1OC [Compound 197]
50 to 500	50 to 500	0.01 to 10				CNC(=O)c1nnc(NC(=O)C2CC2)cc1Nc1cccc(-c2cnn(C3CN(Cc4cccc([N+](=O)[O-])n4)C3)c2)c1OC [Compound 294]
			500 to 5000	500 to 5000	0.01 to 10	CCOc1ccccc1CN(C)C(=O)c1ccc(-c2cccc(Nc3cc(NC(=O)C4CC4)nnc3C(=O)NC)c2OC)cn1 [Compound 83]
50 to 500	50 to 500	0.01 to 10				CNC(=O)c1nnc(NC(=O)C2CC2)cc1Nc1cccc(-c2cnn(C3CN(Cc4cccc(C#CC5CC5)n4)C3)c2)c1OC [Compound 241]
50 to 500	50 to 500	0.01 to 10				CNC(=O)c1nnc(NC(=O)C2CC2)cc1Nc1cccc(-c2cnn(C3CN(Cc4cccc(NC(C)=O)n4)C3)c2)c1OC [Compound 260]
500 to 5000	500 to 5000	0.01 to 10				COc1c(Nc2cc(NC(=O)C3CC3)nn3cc(C)nc23)cccc1-c1ccc(C(=O)N(C)Cc2cc(C#N)ccn2)nc1 [Compound 219]
500 to 5000	50 to 500	0.01 to 10				CNC(=O)c1nnc(NC(=O)C2CC2)cc1Nc1ccc(C)c(-c2cnc(C(=O)N(C)Cc3ncc(COC)s3)c(F)c2)c1OC [Compound 314]
			500 to 5000	500 to 5000	0.01 to 10	CNC(=O)c1nnc(NC(=O)C2CC2)cc1Nc1cccc(-c2cnc(C(=O)N(C)Cc3cccn(C)c3=O)cc2C)c1OC [Compound 24]
			5000 to 100000	5000 to 100000	50 to 500	CNC(=O)c1nnc(NC(=O)C2CC2)cc1Nc1ccc(C)c(-c2cc(C3CCN(Cc4cc(C#N)ccn4)CC3)n(C)n2)c1OC [Compound 186]
500 to 5000	500 to 5000	0.01 to 10				CNC(=O)c1nnc(NC(=O)C2CC2)cc1Nc1cccc(-c2cnn(C3CN(Cc4cccc(P(C)(C)=O)n4)C3)c2)c1OC [Compound 378]
			5000 to 100000	5000 to 100000	0.01 to 10	CNC(=O)c1nnc(NC(=O)C2CC2)cc1Nc1cccc(-c2ccc(C(=O)N(C)Cc3nccc(C#N)c3F)nc2)c1OC [Compound 154]
